Measured values published in a melting point compilation (Tetko et al.; mined from patent text by program, amines drawn as free bases though some values may be those of a salt).

Point of comparison: `Cn1c(=O)c(Cc2ccccc2F)cc2cnc(S(C)(=O)=O)nc21`, melting point 154 °C. Against it:
- Cc1nc2cc(Cl)c(C)c(Cl)c2o1 — lower, 80 to 82 °C
- CCOCc1nc2c(N)nc3ccccc3c2n1CCCCS(=O)(=O)Nc1ccccn1 — higher, 197 to 200 °C
- CC(C)Cc1ccc(C2(C)Oc3ccc(C(=O)O)cc3O2)cc1 (single isomer, unassigned; (-)) — lower, 120 to 122 °C
- C#CCCCCOc1cc(C=O)ccc1OC — lower, 66 to 67 °C
- CCOC(=O)c1cn(-c2ccccc2)c2c([N+](=O)[O-])c(Cl)c(F)cc2c1=O — higher, 186 to 188 °C
- Cc1ccc2c3c(ccc2n1)OCC(CN1C2CCC1CC(O)(c1cccc(C(F)(F)F)c1)C2)O3 (stereo not given) — lower, 146 to 150 °C
- CC(C(O)c1ccc(OC(=O)c2ccc(CN3CCOCC3)cc2)cc1)N1CCC(O)(c2ccccc2)CC1 (stereo not given) — higher, 172 to 173 °C
- COc1ccc(S(=O)(=O)Nc2c(C(=O)O)cc(C#N)c(Cc3ccccc3)c2C)cc1 — lower, 123 °C
- CCOC(=O)Cc1c(-c2ccccc2)[nH]c2ccccc12 — lower, 61 to 62 °C
- COc1cn(-c2cccc3cccnc23)nc(-c2ccnn2-c2ccccc2)c1=O — higher, 189 to 192 °C
- COc1cccc(-c2ccc3c(C(=O)Nc4onc(C)c4C)c(OC)ccc3c2)c1 — lower, 124 °C
- N#CCCNC(=O)c1cccc(-c2cccc3cc(Cc4cccc(C(F)(F)F)c4)[nH]c23)c1 — higher, 174 to 178 °C
- NC(=O)c1c(F)ccc(OCc2nc3ccc(OC(F)(F)F)cc3s2)c1F — higher, 174 to 175 °C
- CC(C)C[C@H](NC(=O)c1cnccn1)C(=O)O — lower, 36 to 38 °C
- N#CCc1cccc2c(-c3ccc(F)cc3)nccc12 — lower, 136 °C
- COc1ccccc1CN1CCC(=O)C(C2c3ccccc3C=Cc3ccccc32)C1 (stereo not given) — lower, 113 to 114 °C
- COc1cc(Cl)c(C#N)cc1C(=O)O — lower, 100 to 102 °C
- CSc1ccc2c(c1)C(=O)Cc1cc(C)ccc1O2 — lower, 102 to 103 °C
- CNC(=O)N(OC(=O)NC(C)(C)C)C(C)=O — lower, 142 to 144 °C
- CC12CC(O)C3(F)C(CCC4=CC(=O)C=CC43C)C1CC(O)C2=O (stereo not given) — higher, 227 to 228 °C
- COc1nc(OC)nc(OC(C(=O)O)C(C)(C)C)n1 (stereo not given) — lower, 37 to 40 °C
- Clc1ccc(CN2C(=NCCCn3ccnc3)c3cccc4cccc2c34)cc1 — lower, 90 to 91 °C
- Cc1ccc2ccn(CC(C)O)c2c1 (racemic) — lower, 65 to 69 °C
- COc1ccc(-n2nnc3c(-c4ccc(C(F)(F)F)cc4F)ncnc32)cc1 — higher, 175 to 177 °C
- CCCC(Oc1cncc(Cl)c1)C(=O)O (stereo not given) — lower, 89 to 91 °C
- CCCSc1ncc(CC(NC(=O)CC(C)C)C(=O)O)n1Cc1ccccc1Cl (stereo not given) — not separable, 151 to 154 °C
- CC(C)(C)OC(=O)N1Cc2ccccc2CN1CC(O)C(Cc1ccccc1)NC(=O)OCc1ccccc1 (stereo not given) — lower, 68 to 71 °C
- CCOC(=O)c1cn(N)c2cc3c(cc2c1=O)OCO3 — higher, 251 to 253 °C
- COc1ccc2c(c1)c1c3c(c(-c4ccccc4Cl)cc1n2CCCO)C(=O)NC3=O — higher, 228 to 230 °C
- CN1C(=O)C2(COc3cc4c(cc32)OCO4)c2c(Br)cccc21 (stereo not given) — higher, 155 to 157 °C
- CC(=O)Oc1ccc(C=CC(=O)Nc2cc(C)c(OCc3ccccc3)c(C)c2)cc1OC(C)=O — lower, 125 to 127 °C
- COC1(c2csc(S(=O)(=O)c3ccc(/C(C)=N/O)cc3)c2)CCOCC1 — lower, 141 to 142 °C
- Cc1cccc(Nc2ccccc2[N+](=O)[O-])c1C — lower, 118 to 120 °C
- O=C(Nc1ccc(Oc2ccnc(NCCN3CCCCC3)n2)c2ccccc12)c1cc(F)cc(N2CCOCC2)c1 — lower, 98 to 100 °C
- C[C@@H]1CCCC[C@@H]1Nc1c(C(N)=O)cnc2[nH]c(-c3ccc(F)cc3)cc12 — higher, > 280 °C
- Cn1ncnc1COc1ccc2nnc(-c3ccccc3)n2n1 — higher, 254 °C
- CCOC(=O)c1ccc(-c2nnc(-c3ccccc3[N+](=O)[O-])o2)cc1 — lower, 127 to 128 °C
- CC(=CC#N)CN1C(=O)c2ccccc2S1(=O)=O — lower, 119 to 121 °C
- CCOC(=O)CNC(=O)c1cccc(Cl)c1 — lower, 70 to 72 °C
- CN1C(=O)C(NC(=O)Nc2cccc(C#N)c2)C(=O)N(c2ccccc2)c2ccccc21 (stereo not given) — higher, > 250 °C
- OC(c1ccccc1)(c1cccc(Cl)c1)c1ncc[nH]1 (stereo not given) — higher, 174 to 175 °C
- Cn1ncnc1COc1nc2c(-c3ccccc3)nncn2c1-c1cccc(Cl)c1 — lower, 80 to 84 °C
- COC(=O)[C@@]12CN(Cc3ccccc3)C[C@@H]1[C@@](O)(c1cccc(OC)c1)CC[C@H]2c1ccccc1 (racemic) — lower, 118 °C
- Nc1cc(F)ccc1C(=O)Oc1ccccc1 — lower, 69 to 70 °C
- c1cc2[nH]ncc2cc1NC1CCN(CC2CCCCC2)CC1 — higher, 179 to 180 °C
- CC(C(=O)c1ccncc1)c1ccc(C2=CCCCC2)cc1 (stereo not given) — lower, 88 to 90 °C
- COc1cc(OC)nc(C(=O)c2cccnc2C(=O)O)n1 — lower, 71 to 73 °C
- Cc1ccc(SN=C2C(=O)N3C(C(=O)OC(c4ccccc4)c4ccccc4)=C(CSc4nnnn4C)CSC23)cc1 (stereo not given) — not separable, 154 to 155 °C
- OCC12CC(c3ccccc31)c1ccccc12 — higher, 165 to 166 °C
